Assay results as given in US11958864B2, “Tetracyclic heterocycle compounds useful as HIV integrase inhibitors” (Merck Sharp & Dohme LLC, priority 2021, dated 2024).

Experiment: Dog pharmacokinetic studies: oral dosing of Compound A or prodrug, plasma Compound A by LC-MS/MS
Type: in vivo, Male Beagle Dogs
Conditions: fasted Beagle dogs, comparison with dosing of Compound A
Experimental: Male Beagle Dogs (Marshall Farms) were used for the pharmacokinetic studies. Studies were conducted under a protocol approved by the WP-IACUC (Animal Procedure Statement #2018-600787-MAR). Following overnight-fasting, dogs were dosed orally with either Compound A at 10 mg/kg and 25 mg/kg or one of the respective prodrugs at the dose equivalent to 10 mg/kg and 25 mg/kg of Compound A formulated as a suspension in either 0.5% methylcellulose with 0.25% sodium lauryl sulfate or 10% Tween 80-5 mM HCl. Food was returned at 4 hours after dosing. Blood (0.5-mL) was drawn at pre-dose, 0.25, 0.5, 1, 2, 4, 6, 24, 48, 72, 96, and 168 hours post-dosing into EDTA-coated collection tubes containing 25 μL of 2 mM dichlorvos solution in water. The tubes were kept chilled prior to blood collection and throughout plasma separation. The plasma was separated by centrifugation (2 minutes at 10000 g). Plasma samples were immediately frozen and kept at −70° C. until analysis by LC-MS/MS.

SMILES: COCCOC(=O)OCOc1c2n3c(c(C(=O)NCc4cccc(Cl)c4F)c1=O)CC[C@@H]3[C@@H]1OCCCN1C2=O [Compound 1, (((11aS,11bR)-3-((3-chloro-2-fluorobenzyl)carbamoyl)-4,6-dioxo-1,2,4,6,9,10,11a,11b-octahydro-8H-[1,3]oxazino[2′,3′:3,4]pyrazino[2,1,6-cd]indolizin-5-yl)oxy)methyl (2-methoxyethyl) carbonate]
- absorption versus their metabolite, Compound A: increase in absorption

SMILES: COC(=O)OCOc1c2n3c(c(C(=O)NCc4cccc(Cl)c4F)c1=O)CC[C@@H]3[C@@H]1OCCCN1C2=O [Compound 6, (((11aS,11bR)-3-((3-chloro-2-fluorobenzyl)carbamoyl)-4,6-dioxo-1,2,4,6,9,10,11a,11b-octahydro-8H-[1,3]oxazino[2′,3′:3,4]pyrazino[2,1,6-cd]indolizin-5-yl)oxy)methyl methyl carbonate]
- absorption versus their metabolite, Compound A: increase in absorption
